In patent publication US7091202B2, “4-arylspirocycloalkyl-2-aminopyrimidine carboxamide KCNQ potassium channel modulators” (Bristol-Myers Squibb Company, priority 2004, dated 2006):

These molecules were tested against T1, hQ23 (HEK-293 cell line stably transfected with one of the members of the KCNQ family) (Homo sapiens, UniProt O43525+O43526) (assay: Thallium flux assay for KCNQ channel blockers (FLIPR, BTC dye)). Settings: Table 3; thallium flux, HEK-293.
T1 construct: expressed in transfected cells; host or cells: HEK-293, stably transfected
T1 sequence (O43526 whole entry): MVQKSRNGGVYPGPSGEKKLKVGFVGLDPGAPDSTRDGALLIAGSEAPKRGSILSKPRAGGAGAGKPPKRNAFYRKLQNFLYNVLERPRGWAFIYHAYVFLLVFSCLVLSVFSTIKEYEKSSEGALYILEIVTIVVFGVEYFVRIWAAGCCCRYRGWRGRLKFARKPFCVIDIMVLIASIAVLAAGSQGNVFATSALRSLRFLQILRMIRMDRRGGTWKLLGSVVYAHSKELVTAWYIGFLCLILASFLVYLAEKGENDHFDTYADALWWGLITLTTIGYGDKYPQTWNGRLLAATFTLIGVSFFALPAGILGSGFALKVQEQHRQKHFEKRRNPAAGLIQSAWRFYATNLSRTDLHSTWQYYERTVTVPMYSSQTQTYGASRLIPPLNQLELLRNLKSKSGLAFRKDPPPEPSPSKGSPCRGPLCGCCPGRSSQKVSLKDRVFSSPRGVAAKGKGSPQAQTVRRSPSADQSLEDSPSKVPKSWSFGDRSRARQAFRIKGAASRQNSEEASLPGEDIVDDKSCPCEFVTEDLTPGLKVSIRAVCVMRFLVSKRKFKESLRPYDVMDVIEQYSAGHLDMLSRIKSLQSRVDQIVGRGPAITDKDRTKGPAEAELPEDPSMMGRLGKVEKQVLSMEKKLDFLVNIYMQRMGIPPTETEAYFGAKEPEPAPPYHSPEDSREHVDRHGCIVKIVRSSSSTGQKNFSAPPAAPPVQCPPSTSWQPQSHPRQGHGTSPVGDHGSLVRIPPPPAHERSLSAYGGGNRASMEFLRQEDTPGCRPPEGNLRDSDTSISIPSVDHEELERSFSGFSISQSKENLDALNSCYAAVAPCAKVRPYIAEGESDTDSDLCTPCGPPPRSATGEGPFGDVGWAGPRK
T1 sequence (O43525 whole entry): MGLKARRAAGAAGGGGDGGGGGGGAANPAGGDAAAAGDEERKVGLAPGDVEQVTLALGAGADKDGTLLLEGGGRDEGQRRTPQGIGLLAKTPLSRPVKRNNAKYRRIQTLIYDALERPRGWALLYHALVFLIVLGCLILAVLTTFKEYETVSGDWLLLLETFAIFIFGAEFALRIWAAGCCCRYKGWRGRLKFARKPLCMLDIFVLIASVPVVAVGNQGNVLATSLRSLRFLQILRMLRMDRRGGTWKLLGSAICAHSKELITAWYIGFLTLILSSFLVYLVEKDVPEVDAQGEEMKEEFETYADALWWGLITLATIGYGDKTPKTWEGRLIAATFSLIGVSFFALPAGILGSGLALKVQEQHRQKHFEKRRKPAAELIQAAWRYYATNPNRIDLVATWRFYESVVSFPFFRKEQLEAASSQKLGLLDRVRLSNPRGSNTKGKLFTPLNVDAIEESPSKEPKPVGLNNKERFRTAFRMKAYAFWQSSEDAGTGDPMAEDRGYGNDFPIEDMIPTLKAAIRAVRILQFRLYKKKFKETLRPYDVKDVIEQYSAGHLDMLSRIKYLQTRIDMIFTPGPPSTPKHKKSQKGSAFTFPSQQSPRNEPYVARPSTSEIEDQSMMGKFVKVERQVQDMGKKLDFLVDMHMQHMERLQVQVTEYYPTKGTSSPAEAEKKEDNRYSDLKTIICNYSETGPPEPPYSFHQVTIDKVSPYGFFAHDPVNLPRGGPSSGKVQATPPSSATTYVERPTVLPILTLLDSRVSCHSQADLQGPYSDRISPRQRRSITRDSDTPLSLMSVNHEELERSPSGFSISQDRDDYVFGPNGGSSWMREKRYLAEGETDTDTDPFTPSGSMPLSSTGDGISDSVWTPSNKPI
Format: cell-based
Procedure, shortened: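 FLIPR thallium flux readout (BTC dye, 2 μM AM ester) in stably transfected KCNQ HEK-293 cells, chloride-free HEPES buffer pH 7.3, Tl2SO4 stimulus. IC50s were fitted with a single-site logistic equation across 10 points at 1:3 dilutions, defined as 50% of positive-control block; minimal active concentration meant signal ≥4 SD over DMSO controls.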

Q: How did the EC50 turn out when `CCC(C)Nc1ncc(C(=O)N(CC)CC)c(C2(c3ccc(Cl)cc3)CCC2)n1` (stereo not shown) [Example 52, 5-pyrimidinecarboxamide, 4-[1-(4-chlorophenyl)cyclobutyl]-N,N-diethyl-2-[(1-methylpropyl)amino]-] was run?
A: 0.211 µM

Q: For `CC1CCCN(c2ncc(C(=O)NCc3cccc4ccccc34)c(C3(c4ccc(Cl)cc4)CCC3)n2)C1` (stereo not shown) [Example 62, 5-pyrimidinecarboxamide, 4-[1-(4-chlorophenyl)cyclobutyl]-2-(3-methyl-1-piperidinyl)-N-(1-naphthalenylmethyl)-], which EC50 is on record?
A: 0.039 µM

Q: With `O=C(NCc1ccc2c(c1)OCO2)c1cnc(N2CCCC2)nc1C1(c2ccc(Cl)cc2)CCC1` [Example 56, 5-pyrimidinecarboxamide, N-(1,3-benzodioxol-5-ylmethyl)-4-[1-(4-chlorophenyl)cyclobutyl]-2-(1-pyrrolidinyl)-] as the molecule, how does the EC50 read?
A: 0.719 µM

Same assay, conditions: hQ23 cells, thallium flux

Q: For `CC1CCN(c2ncc(C(=O)NC(C)c3cccc4ccccc34)c(C3(c4ccc(Cl)cc4)CCCC3)n2)CC1` (stereo not shown) [Example 161, 5-pyrimidinecarboxamide, 4-[1-(4-chlorophenyl)cyclopentyl]-2-(4-methyl-1-piperidinyl)-N-[1-(1-naphthalenyl)ethyl]-], which EC50 is on record?
A: 0.01 µM

Q: How did the EC50 turn out when `CC1CCCN(c2ncc(C(=O)NCc3ccc(Cl)c(Cl)c3)c(C3(c4ccccc4)CCCC3)n2)C1` (stereo not shown) [Example 107, 5-pyrimidinecarboxamide, N-[(3,4-dichlorophenyl)methyl]-2-(3-methyl-1-piperidinyl)-4-(1-phenylcyclopentyl)-] was run?
A: 0.111 µM

Q: Which EC50 does the source give for `CCN(C)C(=O)c1cnc(NC2CCC(C)CC2)nc1C1(c2ccc(F)cc2)CCCC1` (stereo not shown) [Example 225, 5-pyrimidinecarboxamide, N-ethyl-4-[1-(4-fluorophenyl)cyclopentyl]-N-methyl-2-[(4-methylcyclohexyl)amino]-] here?
A: 0.452 µM

Q: For `CC1CCCN(c2ncc(C(=O)N(C)CCc3ccccc3)c(C3(c4ccc(F)cc4)CCCC3)n2)C1` (stereo not shown) [Example 221, 5-pyrimidinecarboxamide, 4-[1-(4-fluorophenyl)cyclopentyl]-N-methyl-2-(3-methyl-1-piperidinyl)-N-(2-phenylethyl)-], which EC50 is on record?
A: 0.356 µM

Q: Which EC50 does the source give for `CCN(C(=O)c1cnc(N2CCC(C)CC2)nc1C1(c2ccc(F)cc2)CCCC1)C1CCCCC1` [Example 215, 5-pyrimidinecarboxamide, N-cyclohexyl-N-ethyl-4-[1-(4-fluorophenyl)cyclopentyl]-2-(4-methyl-1-piperidinyl)-] here?
A: 0.922 µM

Q: For `CN1CCC(N(C)c2ncc(C(=O)NCc3ccc(Cl)cc3Cl)c(C3(c4ccc(Cl)cc4)CCCC3)n2)CC1` [Example 182, 5-pyrimidinecarboxamide, 4-[1-(4-chlorophenyl)cyclopentyl]-N-[(2,4-dichlorophenyl)methyl]-2-[methyl(1-methyl-4-piperidinyl)amino]-], which EC50 is on record?
A: 0.067 µM

Q: `CC1CCCN(c2ncc(C(=O)N(C)CCc3ccccc3)c(C3(c4ccccc4)CCCC3)n2)C1` (stereo not shown) [Example 80, 5-pyrimidinecarboxamide, N-methyl-2-(3-methyl-1-piperidinyl)-4-(1-phenylcyclopentyl)-N-(2-phenylethyl)-] was tested. Which EC50 did it give?
A: 0.88 µM

Q: Which EC50 does the source give for `CCN(Cc1ccccc1)C(=O)c1cnc(N2CCCC(C)C2)nc1C1(c2ccc(F)cc2)CCCC1` (stereo not shown) [Example 229, 5-pyrimidinecarboxamide, N-ethyl-4-[1-(4-fluorophenyl)cyclopentyl]-2-(3-methyl-1-piperidinyl)-N-(phenylmethyl)-] here?
A: 0.369 µM

Q: With `CC1CCCN(c2ncc(C(=O)NCc3ccc4c(c3)OCO4)c(C3(c4ccc(Cl)cc4)CCCC3)n2)C1` (stereo not shown) [Example 153, 5-pyrimidinecarboxamide, N-(1,3-benzodioxol-5-ylmethyl)-4-[1-(4-chlorophenyl)cyclopentyl]-2-(3-methyl-1-piperidinyl)-] as the molecule, how does the EC50 read?
A: 0.01 µM

Q: For `CCC(C)Nc1ncc(C(=O)N(C)CCc2ccccc2)c(C2(c3ccc(F)cc3)CCCC2)n1` (stereo not shown) [Example 223, 5-pyrimidinecarboxamide, 4-[1-(4-fluorophenyl)cyclopentyl]-N-methyl-2-[(1-methylpropyl)amino]-N-(2-phenylethyl)-], which EC50 is on record?
A: 0.675 µM

Q: With `CCC(C)Nc1ncc(C(=O)NCc2ccc(F)cc2F)c(C2(c3ccccc3)CCCC2)n1` (stereo not shown) [Example 120, 5-pyrimidinecarboxamide, N-[(2,4-difluorophenyl)methyl]-2-[(1-methylpropyl)amino]-4-(1-phenylcyclopentyl)-] as the molecule, how does the EC50 read?
A: 0.062 µM

Q: With `CC1CCN(c2ncc(C(=O)NCc3ccc(F)cc3F)c(C3(c4ccccc4)CCCC3)n2)CC1` [Example 119, 5-pyrimidinecarboxamide, N-[(2,4-difluorophenyl)methyl]-2-(4-methyl-1-piperidinyl)-4-(1-phenylcyclopentyl)-] as the molecule, how does the EC50 read?
A: 0.122 µM

Q: How did the EC50 turn out when `CC1CCCN(c2ncc(C(=O)NCc3cccc4ccccc34)c(C3(c4ccccc4)CCCC3)n2)C1` (stereo not shown) [Example 103, 5-pyrimidinecarboxamide, 2-(3-methyl-1-piperidinyl)-N-(1-naphthalenylmethyl)-4-(1-phenylcyclopentyl)-] was run?
A: 0.066 µM

Q: Which EC50 does the source give for `CC1CCN(c2ncc(C(=O)N(C)Cc3ccccc3)c(C3(c4ccc(F)cc4)CCCC3)n2)CC1` [Example 206, 5-pyrimidinecarboxamide, 4-[1-(4-fluorophenyl)cyclopentyl]-N-methyl-2-(4-methyl-1-piperidinyl)-N-(phenylmethyl)-] here?
A: 0.261 µM

Q: Which EC50 does the source give for `CC1CCC(Nc2ncc(C(=O)NC(C)c3ccc(F)cc3)c(C3(c4ccccc4)CCCC3)n2)CC1` (stereo not shown) [Example 131, 5-pyrimidinecarboxamide, N-[1-(4-fluorophenyl)ethyl]-2-[(4-methylcyclohexyl)amino]-4-(1-phenylcyclopentyl)-] here?
A: 0.158 µM

Q: With `CCN(Cc1ccccc1)C(=O)c1cnc(NC2CCCC2)nc1C1(c2ccc(Cl)cc2)CCCC1` [Example 149, 5-pyrimidinecarboxamide, 4-[1-(4-chlorophenyl)cyclopentyl]-2-(cyclopentylamino)-N-ethyl-N-(phenylmethyl)-] as the molecule, how does the EC50 read?
A: 0.525 µM

Q: For `CN(CCc1ccccc1)C(=O)c1cnc(N2CCCC2)nc1C1(c2ccc(Cl)cc2)CCCC1` [Example 147, 5-pyrimidinecarboxamide, 4-[1-(4-chlorophenyl)cyclopentyl]-N-methyl-N-(2-phenylethyl)-2-(1-pyrrolidinyl)-], which EC50 is on record?
A: 0.169 µM

Q: `CCC(C)Nc1ncc(C(=O)NC(C)c2cccc3ccccc23)c(C2(c3ccccc3)CCCC2)n1` (stereo not shown) [Example 99, 5-pyrimidinecarboxamide, 2-[(1-methylpropyl)amino]-N-[1-(1-naphthalenyl)ethyl]-4-(1-phenylcyclopentyl)-] was tested. Which EC50 did it give?
A: 0.293 µM

Q: `CC1CCC(Nc2ncc(C(=O)N(C)C3CCCCC3)c(C3(c4ccc(F)cc4)CCCC3)n2)CC1` (stereo not shown) [Example 207, 5-pyrimidinecarboxamide, N-cyclohexyl-4-[1-(4-fluorophenyl)cyclopentyl]-N-methyl-2-[(4-methylcyclohexyl)amino]-] was tested. Which EC50 did it give?
A: 0.873 µM

Q: How did the EC50 turn out when `CC(NC(=O)c1cnc(NC2CCCC2)nc1C1(c2ccc(Cl)cc2)CCCC1)c1cccc2ccccc12` (stereo not shown) [Example 164, 5-pyrimidinecarboxamide, 4-[1-(4-chlorophenyl)cyclopentyl]-2-(cyclopentylamino)-N-[1-(1-naphthalenyl)ethyl]-] was run?
A: 0.01 µM

Same assay, conditions: hQ23 cells, thallium flux assay

Q: How did the EC50 turn out when `CC1CCN(c2ncc(C(=O)NCc3ccc(C(F)(F)F)cc3)c(C3(c4ccc(F)cc4)CCCC3)n2)CC1` [Example 288, 5-pyrimidinecarboxamide, 4-[1-(4-fluorophenyl)cyclopentyl]-2-(4-methyl-1-piperidinyl)-N-[[4-(trifluoromethyl)phenyl]methyl]-] was run?
A: 0.075 µM

Q: How did the EC50 turn out when `O=C(NCc1cccc2ccccc12)c1cnc(NC2CCCC2)nc1C1(c2ccc(F)cc2)CCCC1` [Example 253, 5-pyrimidinecarboxamide, 2-(cyclopentylamino)-4-[1-(4-fluorophenyl)cyclopentyl]-N-(1-naphthalenylmethyl)-] was run?
A: 0.183 µM

Q: With `CN1CCC(N(C)c2ncc(C(=O)NCc3ccc(F)cc3F)c(C3(c4ccc(F)cc4)CCCC3)n2)CC1` [Example 271, 5-pyrimidinecarboxamide, N-[(2,4-difluorophenyl)methyl]-4-[1-(4-fluorophenyl)cyclopentyl]-2-[methyl(1-methyl-4-piperidinyl)amino]-] as the molecule, how does the EC50 read?
A: 0.532 µM

Q: `CC1CCCN(c2ncc(C(=O)NCc3ccc(F)cc3F)c(C3(c4ccc(F)cc4)CCCC3)n2)C1` (stereo not shown) [Example 269, 5-pyrimidinecarboxamide, N-[(2,4-difluorophenyl)methyl]-4-[1-(4-fluorophenyl)cyclopentyl]-2-(3-methyl-1-piperidinyl)-] was tested. Which EC50 did it give?
A: 0.056 µM

Q: `CN1CCN(c2ncc(C(=O)NCc3cc(F)cc(C(F)(F)F)c3)c(C3(c4ccc(F)cc4)CCCC3)n2)CC1` [Example 276, 5-pyrimidinecarboxamide, 4-[1-(4-fluorophenyl)cyclopentyl]-N-[[3-fluoro-5-(trifluoromethyl)phenyl]methyl]-2-(4-methyl-1-piperazinyl)-] was tested. Which EC50 did it give?
A: 0.327 µM

Q: With `O=C(NCc1cc(F)cc(C(F)(F)F)c1)c1cnc(N2CCCC2)nc1C1(c2ccc(F)cc2)CCCC1` [Example 275, 5-pyrimidinecarboxamide, 4-[1-(4-fluorophenyl)cyclopentyl]-N-[[3-fluoro-5-(trifluoromethyl)phenyl]methyl]-2-(1-pyrrolidinyl)-] as the molecule, how does the EC50 read?
A: 0.024 µM

Q: `CC1CCN(c2ncc(C(=O)NCc3ccc(Cl)c(Cl)c3)c(C3(c4ccc(F)cc4)CCCC3)n2)CC1` [Example 256, 5-pyrimidinecarboxamide, N-[(3,4-dichlorophenyl)methyl]-4-[1-(4-fluorophenyl)cyclopentyl]-2-(4-methyl-1-piperidinyl)-] was tested. Which EC50 did it give?
A: 0.01 µM

Q: `CC1CCC(Nc2ncc(C(=O)NCc3ccc(Cl)cc3Cl)c(C3(c4ccc(F)cc4)CCCC3)n2)CC1` (stereo not shown) [Example 260, 5-pyrimidinecarboxamide, N-[(2,4-dichlorophenyl)methyl]-4-[1-(4-fluorophenyl)cyclopentyl]-2-[(4-methylcyclohexyl)amino]-] was tested. Which EC50 did it give?
A: 0.01 µM
